In assay [1] the target is T1, FAAH (Mus musculus, UniProt O08914).
T1 construct: Proteomes (mouse brain membrane fraction or cell lysates); from tissue; host or cells: mouse brain membrane fraction (or cell lysates)
T1 sequence (O08914 1-579): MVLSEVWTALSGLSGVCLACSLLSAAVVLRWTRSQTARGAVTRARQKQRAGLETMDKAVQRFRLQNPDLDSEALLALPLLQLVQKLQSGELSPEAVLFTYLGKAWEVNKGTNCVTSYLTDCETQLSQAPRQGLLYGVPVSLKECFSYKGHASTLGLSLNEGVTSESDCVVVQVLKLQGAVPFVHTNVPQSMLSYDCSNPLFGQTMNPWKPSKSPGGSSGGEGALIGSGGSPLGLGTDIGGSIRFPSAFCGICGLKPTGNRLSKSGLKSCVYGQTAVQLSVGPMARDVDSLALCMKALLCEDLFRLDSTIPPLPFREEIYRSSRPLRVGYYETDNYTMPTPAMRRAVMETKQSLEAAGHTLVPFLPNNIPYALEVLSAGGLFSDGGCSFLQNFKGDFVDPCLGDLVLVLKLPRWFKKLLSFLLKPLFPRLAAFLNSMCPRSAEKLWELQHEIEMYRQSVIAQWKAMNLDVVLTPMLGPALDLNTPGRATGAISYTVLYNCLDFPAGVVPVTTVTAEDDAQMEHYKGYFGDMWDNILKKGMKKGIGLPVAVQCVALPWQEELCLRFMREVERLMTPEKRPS
The experiment in a line: In vitro competitive activity-based protein profiling (mouse), FAAH gel band. The note with it: for pIC50: mouse; for inhibition at 1 µM: read-out: FAAH % inh. 1 μM. The class given is biochemical. Here is the method: (§1) In Vitro Competitive Activity-Based Protein Profiling (Mouse).
(§2) Proteomes (mouse brain membrane fraction or cell lysates) (50 μL, 1.0 mg/mL total protein concentration) were preincubated with varying concentrations of inhibitors at 37° C. After 30 min, FP-Rh or HT-01 (1.0 μL, 50 μM in DMSO) was added and the mixture was incubated for another 30 min at 37° C. Reactions were quenched with SDS loading buffer (15 μL—4×) and run on SDS-PAGE. Following gel imaging, serine hydrolase activity was determined by measuring fluorescent intensity of gel bands corresponding to MAGL, ABHD6, and FAAH, using ImageJ 1.43u software.

Assay [2] addresses T2, MAGL (Mus musculus, UniProt O35678).
T2 construct: Proteomes (mouse brain membrane fraction or cell lysates); from tissue; host or cells: mouse brain membrane fraction (or cell lysates)
T2 sequence (O35678 1-303): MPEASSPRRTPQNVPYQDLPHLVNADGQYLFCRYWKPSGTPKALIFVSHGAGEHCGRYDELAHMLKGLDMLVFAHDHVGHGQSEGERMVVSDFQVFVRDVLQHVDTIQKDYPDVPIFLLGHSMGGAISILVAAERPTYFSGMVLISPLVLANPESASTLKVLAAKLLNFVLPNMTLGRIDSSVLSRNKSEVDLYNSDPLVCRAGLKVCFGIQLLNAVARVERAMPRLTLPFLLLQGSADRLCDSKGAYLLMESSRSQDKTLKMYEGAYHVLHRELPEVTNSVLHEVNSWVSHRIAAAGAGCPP
The experiment in a line: In vitro competitive activity-based protein profiling (mouse), MAGL gel band. In kind it is biochemical. To be noted: for pIC50: mouse; for inhibition at 1 µM: read-out: MAGL % inh. 1 μM. Here is the method: as §1, §2

pIC50: −log10 of the molar value.

By pIC50 is commonly meant the negative decadic logarithm of the IC50, by convention in mol/L. A higher pIC50 goes with a small IC50. For the compound `CC(=O)N(C)c1ccn(C(=O)N2CCN(Cc3ccc(C(F)(F)F)cc3N3CCCC3)CC2)n1` [Example 2, N-methyl-N-(1-(4-(2-(pyrrolidin-1-yl)-4-(trifluoromethyl)benzyl)piperazine-1-carbonyl)-1H-pyrazol-3-yl)acetamide], the negative logarithm of the IC50 (pIC50) in assay [1] is 5.00 to 6.00; in assay [2] it was 6.00 to 7.00. In addition, the inhibition at 1 µM in assay [1] was 0 to 25%; in assay [2], at least 75%.
Taken in the same sequence, the figures for `CC(=O)Nc1ccn(C(=O)N2CCN(Cc3ccc(Cl)cc3N3CCC(F)CC3)CC2)n1` [Example 7, N-(1-(4-(4-chloro-2-(4-fluoropiperidin-1-yl)benzyl)piperazine-1-carbonyl)-1H-pyrazol-3-yl)acetamide] were 5.00 to 6.00, at least 7.00, 0 to 25% and at least 75%.
Taken in the same sequence, the figures for `CC(=O)Nc1ccn(C(=O)N2CCC3(CCCN3Cc3ccc(C(F)(F)F)cc3N3CCCC3)CC2)n1` [Example 8, N-(1-(1-(2-(pyrrolidin-1-yl)-4-(trifluoromethyl)benzyl)-1,8-diazaspiro[4.5]decane-8-carbonyl)-1H-pyrazol-3-yl)acetamide] were 5.00 to 6.00, at least 7.00, 0 to 25% and at least 75%.
As to `CC(=O)Nc1ccn(C(=O)N2CCC3(CCCN3Cc3ccc(Cl)cc3N3CCC(F)(F)CC3)CC2)n1` [Example 11, N-(1-(1-(4-chloro-2-(4,4-difluoropiperidin-1-yl)benzyl)-1,8-diazaspiro[4.5]decane-8-carbonyl)-1H-pyrazol-3-yl)acetamide], the negative-log IC50 (pIC50) is 5.00 to 6.00 in assay [1] and 6.00 to 7.00 in assay [2]. Besides, the inhibition at 1 µM in assay [1] is 0 to 25%; in assay [2] it was at least 75%.
Taken in the same sequence, the figures for `CC(=O)Nc1ccn(C(=O)N2CCC3(CCCN3Cc3ccc(Cl)cc3N3CCN(C4CC4)CC3)CC2)n1` [Example 13, N-(1-(1-(4-chloro-2-(4-cyclopropylpiperazin-1-yl)benzyl)-1,8-diazaspiro[4.5]decane-8-carbonyl)-1H-pyrazol-3-yl)acetamide] were 5.00 to 6.00, 6.00 to 7.00, 0 to 25% and at least 75%.
Taken in the same sequence, the figures for `CCN1CCN(c2cc(Cl)ccc2CN2CCCC23CCN(C(=O)n2ccc(NC(C)=O)n2)CC3)CC1` [Example 15, N-(1-(1-(4-chloro-2-(4-ethylpiperazin-1-yl)benzyl)-1,8-diazaspiro[4.5]decane-8-carbonyl)-1H-pyrazol-3-yl)acetamide] were 5.00 to 6.00, 6.00 to 7.00, 0 to 25% and at least 75%.
Taken in the same sequence, the figures for `CC(=O)Nc1ccn(C(=O)N2CCC3(CCCN3Cc3ccc(Cl)cc3N3CCOCC3)CC2)n1` [Example 16, N-(1-(1-(4-chloro-2-morpholinobenzyl)-1,8-diazaspiro[4.5]decane-8-carbonyl)-1H-pyrazol-3-yl)acetamide] were 5.00 to 6.00, 6.00 to 7.00, 0 to 25% and at least 75%.
`CC(=O)Nc1ccn(C(=O)N2CCC3(CCCN3Cc3ccc(Cl)cc3N3CC4COCC4C3)CC2)n1` (stereo not shown) [Example 17, N-(1-(1-(4-chloro-2-(dihydro-1H-furo[3,4-c]pyrrol-5(3H,6H,6aH)-yl)benzyl)-1,8-diazaspiro[4.5]decane-8-carbonyl)-1H-pyrazol-3-yl)acetamide]: in assay [1], the negative logarithm of the IC50 (pIC50) was 5.00 to 6.00 and the inhibition at 1 µM was 0 to 25%. Moreover, in assay [2], the negative logarithm of the IC50 (pIC50) was at least 7.00 and the inhibition at 1 µM is at least 75%.
Taken in the same sequence, the figures for `CC(=O)Nc1ccn(C(=O)N2CCC3(CCCN3Cc3ccc(C(F)(F)F)cc3N3CCCCC3)CC2)n1` [Example 19, N-(1-(1-(2-(piperidin-1-yl)-4-(trifluoromethyl)benzyl)-1,8-diazaspiro[4.5]decane-8-carbonyl)-1H-pyrazol-3-yl)acetamide] were 5.00 to 6.00, 0 to 25%, at least 7.00 and at least 75%.
Taken in the same sequence, the figures for `CC(=O)Nc1ccn(C(=O)N2CCC3(CCCN3Cc3ccc(C(F)(F)F)cc3N3CCN(S(C)(=O)=O)CC3)CC2)n1` [Example 21, N-(1-(1-(2-(4-(methylsulfonyl)piperazin-1-yl)-4-(trifluoromethyl)benzyl)-1,8-diazaspiro[4.5]decane-8-carbonyl)-1H-pyrazol-3-yl)acetamide] were 5.00 to 6.00, 0 to 25%, 6.00 to 7.00 and at least 75%.
For `CC(=O)Nc1ccn(C(=O)N2CCC3(CCCN3Cc3ccc(C(F)(F)F)cc3N3CCN(C(C)=O)CC3)CC2)n1` [Example 22, N-(1-(1-(2-(4-acetylpiperazin-1-yl)-4-(trifluoromethyl)benzyl)-1,8-diazaspiro[4.5]decane-8-carbonyl)-1H-pyrazol-3-yl)acetamide], in assay [1], the negative logarithm of the IC50 (pIC50) is 5.00 to 6.00 and the inhibition at 1 µM is 0 to 25%. In addition, in assay [2], the pIC50 was 6.00 to 7.00 and the inhibition at 1 µM is at least 75%.
Taken in the same sequence, the figures for `CC(=O)Nc1ccn(C(=O)N2CCC3(CCCN3Cc3ccc(C)c(C(F)(F)F)c3)CC2)n1` [Example 23, N-(1-(1-(4-methyl-3-(trifluoromethyl)benzyl)-1,8-diazaspiro[4.5]decane-8-carbonyl)-1H-pyrazol-3-yl)acetamide] were 5.00 to 6.00, 0 to 25%, at least 7.00 and at least 75%.
As to `CC(=O)Nc1ccn(C(=O)N2CCC3(CCCN3Cc3ccc(C(F)(F)F)c(Cl)c3)CC2)n1` [Example 24, N-(1-(1-(3-chloro-4-(trifluoromethyl)benzyl)-1,8-diazaspiro[4.5]decane-8-carbonyl)-1H-pyrazol-3-yl)acetamide], the pIC50 in assay [1] was 5.00 to 6.00; in assay [2], at least 7.00. The values for the inhibition at 1 µM in assay [1] and in assay [2] were 0 to 25% and at least 75%, respectively.
For the compound `CC(=O)Nc1ccn(C(=O)N2CCC3(CCCN3Cc3ccc(Cl)c(C(F)(F)F)c3)CC2)n1` [Example 25, N-(1-(1-(4-chloro-3-(trifluoromethyl)benzyl)-1,8-diazaspiro[4.5]decane-8-carbonyl)-1H-pyrazol-3-yl)acetamide], the values for the inhibition at 1 µM in assay [1] and in assay [2] were 25 to 50% and at least 75%, respectively.
In the case of `CC(=O)Nc1ccn(C(=O)N2CCC3(CCCN3Cc3ccc(C(F)(F)F)cc3N3CCC4(C3)CN(S(C)(=O)=O)C4)CC2)n1` [Example 27, N-(1-(1-(2-(2-(methylsulfonyl)-2,6-diazaspiro[3.4]octan-6-yl)-4-(trifluoromethyl)benzyl)-1,8-diazaspiro[4.5]decane-8-carbonyl)-1H-pyrazol-3-yl)acetamide], in assay [1], the pIC50 is 5.00 to 6.00 and the inhibition at 1 µM fell in the range of 0 to 25%. Also, in assay [2], the pIC50 is at least 7.00 and the inhibition at 1 µM is at least 75%.
Taken in the same sequence, the figures for `CC(=O)Nc1ccn(C(=O)N2CCC3(CCCN3Cc3ccc(C(F)(F)F)cc3N3CCN(C4CC4)CC3)CC2)n1` [Example 30, N-(1-(1-(2-(4-cyclopropylpiperazin-1-yl)-4-(trifluoromethyl)benzyl)-1,8-diazaspiro[4.5]decane-8-carbonyl)-1H-pyrazol-3-yl)acetamide] were 5.00 to 6.00, 0 to 25%, 6.00 to 7.00 and at least 75%.
Consider `CC(=O)Nc1ccn(C(=O)N2CCC3(CCCN3Cc3ccc(Cl)cc3N3CCN(S(C)(=O)=O)CC3)CC2)n1` [Example 35, N-(1-(1-(4-chloro-2-(4-(methylsulfonyl)piperazin-1-yl)benzyl)-1,8-diazaspiro[4.5]decane-8-carbonyl)-1H-pyrazol-3-yl)acetamide], for which the negative-log IC50 (pIC50) in assay [1] was 5.00 to 6.00; in assay [2] it was 6.00 to 7.00. In addition, the inhibition at 1 µM in assay [1] was 0 to 25%; in assay [2], at least 75%.
As for `CS(=O)(=O)Nc1ccn(C(=O)N2CCN(Cc3ccc(C(F)(F)F)c(C4CCN(CC(=O)O)CC4)c3)CC2)n1` [Example 119, 2-(4-(5-((4-(3-(methylsulfonamido)-1H-pyrazole-1-carbonyl)piperazin-1-yl)methyl)-2-(trifluoromethyl)phenyl)piperidin-1-yl)acetic Acid], in assay [2], the negative logarithm of the IC50 (pIC50) is at least 7.00.

The values above are taken from patent US10519134B2, “Pyrazole compounds and methods of making and using same” (Lundbeck La Jolla Research Center, Inc., priority 2015, dated 2019).
